The numbers were not newly measured in patent US6218375A, “Complex of ras-farnesyltransferase inhibitor and sulfobutylether-7-β-cyclodextrin or 2-hydroxypropyl-β-cyclodextrin and method” (priority 2000, dated 2001), which cites them from elsewhere.

The conditions of series [1]: complexes with cyclodextrin derivatives, sublingual or buccal route.
The conditions of series [2]: by cyclodextrins.
For series [3] the following is noted: by β-cyclodextrin.

For `CC(=O)[C@H]1CC[C@H]2[C@@H]3CCC4=CC(=O)CC[C@]4(C)[C@H]3CC[C@]12C` [progesterone], in series [1], the elimination entry was “only gradual elimination” and the “transfer into the systemic circulation” value is “effective transfer of these hormones into the systemic circulation”.

For `CCN(CC)CCOC(=O)C(c1ccccc1)c1ccccc1` [adipherine], the water-solubility result in series [2] is reported as “increase water-solubility”. As for `CC(=O)Oc1ccccc1C(=O)O` [aspirin], the water-solubility entry in series [2] is “increase water-solubility”. Consider `CC(C)C12C=CC(C)(CC1)OO2` (centres unmarked) [ascaridole], for which the stabilization entry in series [3] was “increases stabilization”. Consider `O=[N+]([O-])OCC(CO[N+](=O)[O-])O[N+](=O)[O-]` [nitroglycerin], for which the stabilization result in series [3] is “increases stabilization”. Take `C[C@]12CC[C@@H]3c4ccc(O)cc4CC[C@H]3[C@@H]1CC[C@@H]2O` [estradiol]: in series [1], the elimination result was “only gradual elimination” and the “transfer into the systemic circulation” value is reported as “effective transfer of these hormones into the systemic circulation”. With `CCN(CC)CCOC(=O)c1ccc(N)cc1` [procaine], the stabilization entry in series [3] is “increases stabilization”. Further, the water-solubility result in series [2] is reported as “increase water-solubility”.

In the case of `C=C1CC[C@H](O)C/C1=C/C=C1\CCC[C@]2(C)[C@@H]([C@H](C)CCCC(C)C)CC[C@@H]12` [vitamin D3], the water-solubility result in series [2] is given as “increase water-solubility”.

In the case of `CCCCC/C=C\C/C=C\CCCCCCCC(=O)O` [linoleic acid], in series [3], the stabilization result is “increases stabilization”. In the case of `C[C@]12CC[C@H]3[C@@H](CCC4=CC(=O)CC[C@@]43C)[C@@H]1CC[C@@H]2O` [testosterone], in series [1], the elimination result is “only gradual elimination” and the “transfer into the systemic circulation” value is “effective transfer of these hormones into the systemic circulation”. Also, in series [2], the water-solubility result is “increase water-solubility”. With `O=C(O)c1ccccc1O` [salicyclic acid], in series [3], the stabilization result was “increases stabilization”. On to `COc1ccc2c(c1)c(CC(=O)O)c(C)n2C(=O)c1ccc(Cl)cc1` [indomethacin], for which the stabilization result in series [3] is given as “increases stabilization”. Take `C=CCS[S+]([O-])CC=C` (centres unmarked) [allicin]: in series [3], the stabilization entry is “increases stabilization”.

Consider `CCOC(=O)c1ccc(N)cc1` [benzocaine], for which the stabilization result in series [3] is “increases stabilization”. For the same compound, the water-solubility result in series [2] is “increase water-solubility”.
